ChEMBL document CHEMBL3507680, “University of Dundee, Gates Library screen for HepG2 cell viability”

assay: Human HepG2 cell viability assay in 384 well format; type: toxicity, cell-based; set-up: dose 125 nL, time 70.5 hour; cytotoxicity at 70.5 h: concentration not given beside the values; settings: HepG2 cells, read-out: Inhibition

Structure (SMILES)	cytotoxicity at 70.5 h [%]
CC(NC(=O)NCCCn1cncn1)c1ccccc1Cl (stereo not drawn)	-2.04
Cc1cn2c(n1)CCC(NC(=O)c1[nH]nc(C)c1Br)C2 (stereo not drawn)	13.2
CNS(=O)(=O)c1cccc(CNc2cc(C(F)(F)F)ccn2)c1	-0.978
CC1CN(C)CCN1C(=O)COc1cccc(Oc2ccccn2)c1 (stereo not drawn)	18.2
O=c1c(CN2CCOCC2)coc(O)c1CN1CCOCC1	-7.31
Cc1nc(C)c(CC(=O)Nc2nnc(C(C)C)s2)c(=O)[nH]1	-5.16
Cc1cnc(CN(C)C2CCN(CC(=O)Nc3c(C)n[nH]c3C)C2)o1 (stereo not drawn)	11.7
Cc1nc2n(n1)CC(NCCc1cccs1)CC2 (stereo not drawn)	0.958
COc1cc(CNc2cnn(CCN3CCOCC3)c2)cc(OC)c1	-20.4
CC(C)CCC(=O)N1CCCC2(CCN(Cc3ccccc3C#N)C2)C1 (stereo not drawn)	-5.13
COCCC(Cc1cccc(Br)c1)C(N)=O (stereo not drawn)	-7.63
Cn1cc(N2CC3(CCN(S(=O)(=O)C4CC4)C3)CC2=O)cn1 (stereo not drawn)	-1.83
Cc1ccc(C)c(C(NC2CCCC2)c2cccnc2)c1 (stereo not drawn)	7.4
Cc1cnn(CCCNC(=O)NC2CCN(CC(F)(F)F)C2=O)c1 (stereo not drawn)	-4.78
Cc1cc(N2CCN(C(=O)C(C)n3ccnc3C(C)C)CC2)cc(C)n1 (stereo not drawn)	-4.34
C=C(C)COc1ccc(C(=O)NCCn2c(C)cc(C)nc2=O)cc1	-6.24
CCCC(=O)N1CCCCC1C(=O)Nc1ccc(-c2nnc[nH]2)cc1 (stereo not drawn)	-5.35
Cc1cccc(CN2C[C@@H]3CN(C(=O)c4ccsc4)C[C@@H]3C2=O)c1	-5.57
Cc1noc(-c2ccc(N3CCC(C(=O)N4CCCC4)CC3)nc2)n1	-1.82
O=C1NCCN1C1CCN(Cc2nc(-c3ccoc3)no2)CC1	7.71
CCC(CC)c1cc(C(=O)N2CCN(CC(N)=O)CC2)on1	-6.02
C[C@@H]1CN(C(=O)c2ccc[nH]2)C[C@]12CCN(CCN1CCCC1)C2=O	-5.21
O=c1ccc2c(n1Cc1cccnc1)CCN(CC1CCOC1)CC2 (stereo not drawn)	-4.17

Structure (SMILES)	cytotoxicity at 70.5 h [%]
COc1cc(NC(=O)N(C)C(C2CC2)C2CC2)ncn1	-3.68
CCN1C[C@@H]2CN(S(=O)(=O)c3cccs3)C[C@@H]2C1=O	-8.27
O=C(c1cnccn1)N1CCC2(CCCN(Cc3ccoc3)C2)C1 (stereo not drawn)	11.3
CC(C)CCN1CCCC(Cn2cc(CCO)nn2)C1 (stereo not drawn)	-2.37
O=C1Nc2ccccc2CNC12CCN(CC1CCCC1)CC2	-7.54
Cc1cccc(CN2CCc3ncnc(C4CC4)c3CC2)n1	5.72
CCOC(C)c1nc(Cn2cc(-n3cccc3)cn2)cs1 (stereo not drawn)	-10.1
O=C(Nc1ccc(F)cc1)C1CNCCN1C(=O)CCO (stereo not drawn)	8.54
CCc1ncc(C(=O)N2CC(Oc3ccccc3Cl)C2)cn1	10.7
O=C(CNC(=O)C1CC1)NCCOc1cccc(Cl)c1Cl	31.3
Cc1cc(NC(=O)[C@H]2CCCCN2C(=O)OC(C)(C)C)no1	-2.01
Cc1cc(NC(=O)C(c2cccc(F)c2)N2CCOCC2)ccn1 (stereo not drawn)	13.3
FC(F)(F)c1ccnc(N2CCCOCC2)c1	-13.6
Cc1cnn(CC2CN(Cc3nc(C)c4ccccc4n3)CCO2)c1 (stereo not drawn)	-7.25
Cc1cc(C(=O)N2CCCCC2c2nc3cc(F)ccc3[nH]2)nn1C (stereo not drawn)	-6.6
CC(C)C(=O)N(C)CC(=O)Nc1ccc(Br)cn1	-2.8
COc1cc(Cl)ccc1C(=O)N1CCCC(c2cc(C)[nH]n2)C1 (stereo not drawn)	36.1
COCCCNC(=O)C1CCN(CC2(O)CCC(C)CC2)CC1 (stereo not drawn)	-3.99
O=C(CCN1CCCC1=O)NCc1cccnc1Oc1ccccc1	-3.36
CCc1cc(N(C)Cc2ncc[nH]2)nc(N2CCOCC2)n1	-15.9
O=C(NC1CCCNC1=O)c1ccc2nc(-c3ccc(F)cc3)cn2c1 (stereo not drawn)	15
Cn1ccnc1C(=O)N[C@@H]1CN(Cc2cccs2)[C@@H]2CCCO[C@@H]21	-14.1
COc1cc(C)ccc1OCCC(=O)N1CCCC1Cn1cccn1 (stereo not drawn)	-3.24

Structure (SMILES)	cytotoxicity at 70.5 h [%]
Cc1ncsc1CN1C[C@@H]2CCCO[C@@H]2[C@H](Nc2ccccn2)C1	-4.96
Cc1ccc2nc(CNCCCOc3ccccc3)cc(O)c2c1 [UCSF924]	-2.02
OCCN(Cc1cccnc1)c1ccc(Br)cn1	-2.3
O=C(c1ccccn1)N1CCC(Cc2cnc3[nH]ccc3c2)CC1	-6.64
O=C(CN1CCCC1c1nc(-c2ccccn2)no1)N1CCOCC1 (stereo not drawn)	-7.89
CC(C)c1n[nH]c(C2CN(Cc3nnc(C4CC4)n3C)CCO2)n1 (stereo not drawn)	-7.72
CN(c1cccnn1)C1CCN(C(=O)c2ccc3c(c2)COC3)CC1	-13.7
CCc1cnc(CN(C)C(=O)NC2CCN(C)C2=O)s1 (stereo not drawn)	-7.59
COc1ncc(C2(O)CCN(Cc3c(F)cccc3F)CC2)c(OC)n1	31.4
Cc1nc(CN(C)C2CCCN(Cc3noc(C4CC4)n3)C2)oc1C (stereo not drawn)	14.4
COCc1noc(CCNC(=O)c2cc(C)c(C)[nH]c2=O)n1	-7.79
CC(C)c1noc(C2CC(=O)N(CCN(C)C)C2)n1 (stereo not drawn)	-8.25
C=C(C)COc1ccccc1C(=O)NCCc1nncn1C	25.1
CN(Cc1cn2c(n1)CN(Cc1ccsc1)CC2)Cc1ccco1	-6.14
FC(F)Oc1ccccc1CNCc1cc(Br)c2c(c1)OCO2	-7.29
Cc1cnn(Cc2ccc(NC(=O)N3CCCCC3CO)cc2)c1 (stereo not drawn)	24.6
c1ccc(CCN2CCOC3(CCc4ccccc43)C2)nc1 (stereo not drawn)	-15.8
CCn1ccnc1C1CCCN(C(=O)c2sc(C)nc2C)C1 (stereo not drawn)	-7.2
CCN(CC)c1ccc(C(=O)N2CCCC2Cn2cc(C)cn2)cn1 (stereo not drawn)	-5.59
C1CCC(c2nc3c(c(N4CCN5CCCC5C4)n2)CCNCC3)C1 (stereo not drawn)	-5.97
Fc1ccc2c(c1)C1(CCNCC1)CC2NC1CC1 (stereo not drawn)	14.1
O=C(C1CCC2(CCN(c3nncs3)CC2)C1)N1CCCC1 (stereo not drawn)	9.17
Cc1cc(S(=O)(=O)N(CC(N)=O)CC(C)C)ccc1Br	11.4

Structure (SMILES)	cytotoxicity at 70.5 h [%]
CCN(CC)[C@@H]1CN(S(=O)(=O)c2cn(C)cn2)[C@@H]2CCCO[C@H]12	26.4
CCn1cc(C(=O)NC2CCN(S(C)(=O)=O)CC2)c2ccccc21	-9.93
O=C(C1CCC1)N1CCCC(c2ccnc(Nc3cnccn3)n2)C1 (stereo not drawn)	-7.38
O=C(CCc1cscn1)NS(=O)(=O)c1ccc2ccccc2c1	-5.17
Cc1cc(NC(=O)C(C)NCCn2cccn2)no1 (stereo not drawn)	-0.681
COc1ncccc1CNC(=O)c1c(C)oc(C)c1C	-8.16
Cc1ncsc1CN1C[C@@H]2COC[C@]2(C(=O)NC(C)C)C1	-11.1
O[C@@H]1C[C@H]2CN(Cc3ccsc3)[C@@H](Cc3ccccc3)CN2C1	-1.32
CCc1ccc(C(=O)N2C[C@@H]3COC[C@@H](C(=O)NC)[C@@H]3C2)cc1	-0.591
O=C(c1cnccn1)N1CCCC(Cc2cncc3ccccc23)C1 (stereo not drawn)	-6.77
CCC(CNC(=O)CNC(C)=O)Oc1cccc(F)c1 (stereo not drawn)	-9.82
N#Cc1cccnc1N1CCCN(C(=O)CCc2cccs2)CC1	-4.16
O=C(CC1=CCCCC1)NCCc1csc(N2CCCC2)n1	-0.0397
Cc1cc(C)n(CC2CCCN2C(=O)c2cc[nH]n2)n1 (stereo not drawn)	-1.3
CNC(=O)COC1COC2(CCN(Cc3cccnc3)CC2)C1 (stereo not drawn)	-9.98
CC(C)Cn1cncc1CNC1CCCNC1 (stereo not drawn)	-4.78
O=C1NCC(C(=O)Nc2ncc(Cc3cccc(F)c3)s2)N1 (stereo not drawn)	-6.09
CC[C@H](C)[C@H](NC(=O)Cc1csc(-c2cccc(Cl)c2)n1)C(=O)O	-27.4
O=C(Cn1ccc2ccccc21)NC[C@@H]1CCCN2CCCC[C@H]12	-10.1
CCN(Cc1noc(CC(C)C)n1)C[C@]1(O)CCCN2CCCC[C@@H]21	-11.7
COCCN1C[C@H]2CCC[C@@H](CNc3ncccn3)[C@H]2C1	-10.7
Cc1cc(C(=O)N2CCc3nc(C4CCCN4)ncc3C2)cs1 (stereo not drawn)	-4.19
Cc1cnc(N2CCCC3(CCCN3CC(=O)N(C)C)C2)nc1 (stereo not drawn)	12.8

Structure (SMILES)	cytotoxicity at 70.5 h [%]
O=C(c1csc(-c2nnc[nH]2)n1)N1CCCCC1Cn1cccn1 (stereo not drawn)	1.45
Cc1nc(-c2ccsc2)ccc1C(=O)NCCC1CCCO1 (stereo not drawn)	28.6
O=C(CN1CCOC(Cn2cccn2)C1)NCCc1ccc(F)cc1 (stereo not drawn)	-13.9
CC(C)N[C@@H]1CO[C@H](CNC(=O)c2ccccc2)[C@H]1O	-0.106
Cc1ccccc1N1CCCN(C(=O)CCc2ccncc2)CC1	-9.24
CN1CCOC(C(=O)Nc2nnc(Cc3ccc(F)cc3)[nH]2)C1 (stereo not drawn)	-7.94
CCN1CC2(CC1=O)CN(Cc1ccsc1)CCN(C(=O)C(C)C)C2 (stereo not drawn)	-15.8
CC(NC1(CNS(C)(=O)=O)CCOCC1)c1ccccc1 (stereo not drawn)	-8.35
CNC(=O)CCc1cc(C2CCCCN2C(C)C)nc(C)n1 (stereo not drawn)	-1.6
CCOCCC(=O)Nc1cccc(Cl)c1COC	-2.76
OCCc1cc(CC2(NCc3ccncc3)COC2)no1	-4.15
CSc1ccccc1C(=O)N1C[C@@H](N(C)C)[C@H](c2ccc(C)cc2)C1	-1.92
COCC(=O)N1CCC2(CCc3ccc(F)cc32)CC1	-2.02
CCS(=O)(=O)N1CCOC2(CCCN(c3cnccn3)C2)C1 (stereo not drawn)	-6.84
CNc1cc2c(nn1)CCN(C(=O)c1ccc3c(c1)CCC3)C2	-4.27
Cc1ccc(-c2cc(C(=O)N(C)Cc3noc4c3CCCC4)[nH]n2)o1	43.8
COC(=O)CCNC(=O)c1ccc(OCc2ccccc2)nc1	-6.92
NS(=O)(=O)c1ccc(CNC(=O)c2ccc(Cl)cc2F)cc1	5.61
CC1CC(=O)c2cc(C(=O)N3CCc4ccccc43)c(=O)[nH]c2C1 (stereo not drawn)	-1.11
CN1CCN(C2COC3(CCN(CC4CC4)CC3)C2)CC1 (stereo not drawn)	0.151
O=C(c1ccco1)N1C[C@H]2CCCN(Cc3ccncc3)[C@H]2C1	-3.44
